In brackets after ≈: the same amount, converted by molar mass. Where two headings read alike, the source gives them in different places.
Test system: Mycoplasma gallisepticum
Assay: Activity against Mycoplasma gallisepticum (minimum inhibiting concentration)
Format: cell-based
Conditions: for MIC: without added Cu; for MIC with Cu: media containing 50 μg/ml Cu^2+; for MIC M. gall. with Cu: with Cu (50 μg/ml Cu^2+)
From the text: The following tables show some activities--expressed as minimum inhibiting concentration (MIC)--of the prepared compounds against various micro-organisms. The compounds are identified by reference to the Example in which they are described. When more than one compound is mentioned in an Example, they are distinguished by a number between parentheses, corresponding to their order of occurrence, for instance: VI (2) refers to the second compound prepared according to Example VI. The term "with Cu" refers to tests conducted in media containing 50 μg/ml Cu^2+.
The activities of the following compounds, not mentioned in the Examples, were also measured.

[1] = Mycoplasmoides gallisepticum, Table I, read-out: MIC
[2] = Mycoplasmoides gallisepticum, Table IVb, read-out: MIC M. gall.

SMILES | MIC with Cu (Table I) | MIC (Table I) | also measured
C=Cn1ccnc1-c1cc2ccccc2c(N)n1 [Example XVIIc, 1-amino-3-(1-ethenyl-1H-imidazole-2-yl) isoquinoline] | 0.2 mg/L | – | MIC [1]: > 100 mg/L
CCCc1nc(-c2ccccn2)cc2ccccc12.Cl [XIIIf, 1-propyl-3-(2-pyridyl)isoquinoline hydrochloride] | 0.03 mg/L | – | –
Cc1cccc(-c2cc3ccccc3c(N)n2)n1.O=[N+]([O-])[O-].O=[N+]([O-])[O-].[Cu+2] [IVc, Mono[1-amino-3-(6-methyl-2-pyridyl)isoquinoline]cupric nitrate] | – | 0.8 mg/L | –
Cc1cccc(-c2cc3ccccc3c(Cl)n2)n1 [XIb, 1-Chloro-3-(6-methyl-2-pyridyl)isoquinoline] | 1 mg/L | – | –
C=Cn1ccnc1-c1nc(N)c2ccccc2n1.C=Cn1ccnc1-c1nc(N)c2ccccc2n1.O=[N+]([O-])[O-].O=[N+]([O-])[O-].[Cu+2] [XVIIIb (3), Bis[4-amino-2-(1-ethenyl-1H-imidazole-2-yl)quinazoline]cupric nitrate] | 0.2 mg/L | 12.5 mg/L | –
Cc1ccc2cc(-c3ccccn3)nc(N)c2c1.Cc1ccc2cc(-c3ccccn3)nc(N)c2c1.O=[N+]([O-])[O-].[Cu+] [IIb, Bis[1-amino-7-methyl-3-(2-pyridyl)isoquinoline]cuprous nitrate] | – | 6 mg/L | –
Cn1ccnc1-c1nc(N)c2ccccc2n1 [XVIa, 4-amino-2-(1-methyl-1H-imidazole-2-yl)quinazoline] | 0.2 mg/L | – | MIC [1]: 25 mg/L (≈ 111 µM)
Clc1ccc2ccc3ccc(Cl)nc3c2n1.Clc1ccc2ccc3ccc(Cl)nc3c2n1.O=[N+]([O-])[O-].[Cu+] [IIe, Bis(2,9-dichloro-1,10-phenanthroline)cuprous nitrate] | – | 25 mg/L | –
Cn1ccnc1-c1cc2ccccc2c(N)n1.O=[N+]([O-])[O-].O=[N+]([O-])[O-].[Cu+2] [XVb (2), mono[1-amino-3-(1-methyl-1H-imidazole-2-yl)isoquinoline]cupric nitrate] | 1.5 mg/L | 12.5 mg/L | –
Nc1nc(-c2ccccn2)cc2ccc(I)cc12 [VIIIl] | 0.2 mg/L | – | –
Cn1ccnc1-c1cc2ccccc2c(N)n1.Cn1ccnc1-c1cc2ccccc2c(N)n1.O=[N+]([O-])[O-].[Cu+] [XVb (1), Bis[1-amino-3-(1-methyl-1H-imidazole-2-yl)isoquinoline]cuprous nitrate] | 0.8 mg/L | 12.5 mg/L | –
c1ccc(-c2ncc3ccccc3n2)nc1 [B] | – | – | MIC M. gall. with Cu (Table IVb): 0.5 mg/L
C=Cn1ccnc1-c1nc(N)c2ccccc2n1 [Example XVIIIa, 4-amino-2-(1-ethenyl-1H-imidazole-2-yl)quinazoline] | 0.2 mg/L | – | MIC [1]: > 100 mg/L
COc1cc2cc(-c3ccccn3)nc(N)c2cc1OC [VIIIa] | 12.5 mg/L | – | MIC [1]: 100 mg/L (≈ 355 µM)
Cl.Nc1nc(-c2ccccn2)cc2cc(Cl)ccc12 [Example VII, 1-amino-6-chloro-3-(2-pyridyl)isoquinoline hydrochloride] | 0.4 mg/L | – | –
Cn1ccnc1-c1nc(N)c2ccccc2n1.O=[N+]([O-])[O-].O=[N+]([O-])[O-].[Cu+2] [XVIb (2), Mono[4-amino-2-(1-methyl-1H-imidazole-2-yl)quinazoline]cupric nitrate] | 0.4 mg/L | 6 mg/L | –
Cl.Cl.Nc1nc(-c2ncc[nH]2)nc2ccccc12 [XXa, 4-amino-2(1H-imidazole-2-yl)quinazoline dihydrochloride] | 3 mg/L | – | MIC [1]: > 100 mg/L
Cl.Nc1nc(-c2ccccn2)cc2cc(Br)ccc12 [Example X, 1-Amino-6-bromo-3-(2-pyridyl)isoquinoline hydrochloride] | 0.4 mg/L | – | –
Cn1ccnc1-c1nc(N)c2ccccc2n1.Cn1ccnc1-c1nc(N)c2ccccc2n1.O=[N+]([O-])[O-].[Cu+] [XVIb (1), Bis[4-amino-2-(1-methyl-1H-imidazole-2-yl)quinazoline]cuprous nitrate] | 0.2 mg/L | 6 mg/L | –
Cc1cccc2c(N)nc(-c3ccccn3)cc12 [VIIIb] | 0.2 mg/L | – | MIC [1]: 1.5 mg/L (≈ 6.38 µM)
Nc1nc(-c2ccccn2)cc2ccccc12.Nc1nc(-c2ccccn2)cc2ccccc12.O=[N+]([O-])[O-].O=[N+]([O-])[O-].[Cu+2] [Example V, bis[1-amino-3-(2-pyridyl)isoquinoline]cupric nitrate] | – | 3 mg/L | –
Nc1nc(-c2ncc[nH]2)cc2ccccc12.Nc1nc(-c2ncc[nH]2)cc2ccccc12.O=[N+]([O-])[O-].O=[N+]([O-])[O-].[Cu+2] [XIXb (3), Bis[1-amino-3-(1H-imidazole-2-yl)isoquinoline]cupric nitrate] | 3 mg/L | 50 mg/L | –
Cc1cccc(-c2cc3ccccc3c(N)n2)n1.Cc1cccc(-c2cc3ccccc3c(N)n2)n1.O=[N+]([O-])[O-].O=[N+]([O-])[O-].[Cu+2] [VI (2), bis[1-amino-3-(6-methyl-2-pyridyl)isoquinoline]cupric nitrate] | – | 0.8 mg/L | –

SMILES | MIC with Cu (Table I) | MIC (Table I) | also measured
Nc1nc(-c2ccccn2)cc2ccc(Cl)cc12 [VIIIi] | 0.2 mg/L | – | –
Nc1nc(-c2ccccn2)cc2ccccc12.Nc1nc(-c2ccccn2)cc2ccccc12.O=[N+]([O-])[O-].[Cu+] [IIc, Bis[1-amino-3-(2-pyridyl)isoquinoline]cuprous nitrate] | 0.4 mg/L | 3 mg/L | –
Cn1ccnc1-c1cc2ccccc2c(N)n1.Cn1ccnc1-c1cc2ccccc2c(N)n1.O=[N+]([O-])[O-].O=[N+]([O-])[O-].[Cu+2] [XVb (3), Bis[1-amino-3-(1-methyl-1H-imidazole-2-yl)isoquinoline]cupric nitrate] | 1.5 mg/L | 12.5 mg/L | –
Nc1nc(-c2ncc[nH]2)cc2ccccc12.O=[N+]([O-])[O-].O=[N+]([O-])[O-].[Cu+2] [XIXb (2), Mono[1-amino-3-(1H-imidazole-2-yl)isoquinoline]cupric nitrate] | 3 mg/L | 50 mg/L | –
Clc1ccc2nc(-c3ccccn3)ncc2c1 [C] | – | – | MIC M. gall. with Cu (Table IVb): 0.8 mg/L
Cn1ccnc1-c1cc2ccccc2c(N)n1 [XVa, 1-amino-3-(1-methyl-1H-imidazole-2-yl)isoquinoline] | 1.5 mg/L | – | MIC [1]: > 100 mg/L
Nc1nc(-c2ccccn2)cc2ccccc12.O=[N+]([O-])[O-].O=[N+]([O-])[O-].[Cu+2] [IVa, Mono[1-amino-3-(2-pyridyl)isoquinoline]cupric nitrate] | – | 1.5 mg/L | –
Nc1nc(-c2ccccn2)cc2cccc(Cl)c12 [VIIIj] | 0.2 mg/L | – | MIC [1]: 100 mg/L (≈ 391 µM)
c1ccc(-c2nc(-c3ccccn3)cc3ccccc23)cc1 [XIVb, 1-phenyl-3-(2-pyridyl)isoquinoline] | 0.2 mg/L | – | –
C=Cn1ccnc1-c1cc2ccccc2c(N)n1.C=Cn1ccnc1-c1cc2ccccc2c(N)n1.O=[N+]([O-])[O-].[Cu+] [XVIId (1), Bis[1-amino-3-(1-ethenyl-1H-imidazole-2-yl)isoquinoline]cuprous nitrate] | 0.2 mg/L | 25 mg/L | –
Nc1nc(-c2ccccn2)cc2c(Cl)cccc12.O=[N+]([O-])[O-].O=[N+]([O-])[O-].[Cu+2] [IVb, Mono[1-amino-5-chloro-3-(2-pyridyl)isoquinoline]cupric nitrate] | – | 0.8 mg/L | –
Cc1ccc2cc(-c3ccccn3)nc(N)c2c1 [VIIId] | 0.2 mg/L | – | MIC [1]: 1.5 mg/L (≈ 6.38 µM)
Nc1ccc2ccc3cccnc3c2n1 [F] | – | – | MIC [2]: 25 mg/L (≈ 128 µM); MIC M. gall. with Cu (Table IVb): 0.8 mg/L
Cc1cccc(-c2cc3ccccc3cn2)n1 [XIc, 3-(6-methyl-2-pyridyl)isoquinoline] | 0.1 mg/L | – | –
Nc1nc(-c2ncc[nH]2)nc2ccccc12.O=[N+]([O-])[O-].O=[N+]([O-])[O-].[Cu+2] [XXb (2), Mono[4-amino-2-(1H-imidazole-2-yl)quinazoline]cupric nitrate] | 1.5 mg/L | 25 mg/L | –
C=Cn1ccnc1-c1cc2ccccc2c(N)n1.C=Cn1ccnc1-c1cc2ccccc2c(N)n1.O=[N+]([O-])[O-].O=[N+]([O-])[O-].[Cu+2] [XVIId (3), Bis[1-amino-3-(1-ethenyl-1H-imidazole-2-yl)isoquinoline]cupric nitrate] | 0.2 mg/L | 12.5 mg/L | –
CCc1ccc2cc(-c3ccccn3)nc(N)c2c1 [VIIIk] | 0.2 mg/L | – | –
C=Cn1ccnc1-c1cc2ccccc2c(N)n1.O=[N+]([O-])[O-].O=[N+]([O-])[O-].[Cu+2] [XVIId (2), Mono[1-amino-3-(1-ethenyl-1H-imidazole-2-yl)isoquinoline]cupric nitrate] | 0.2 mg/L | 12.5 mg/L | –
Clc1nc(-c2ccccn2)cc2ccccc12 [XIIc (2), 1-chloro-3-(2-pyridyl)isoquinoline] | 0.06 mg/L | – | –
Nc1nc(-c2ncc[nH]2)nc2ccccc12.Nc1nc(-c2ncc[nH]2)nc2ccccc12.O=[N+]([O-])[O-].O=[N+]([O-])[O-].[Cu+2] [XXb (3), Bis[4-amino-2-(1H-imidazole-2-yl)quinazoline]cupric nitrate] | 6 mg/L | 50 mg/L | –
O=[N+]([O-])[O-].[Cu+].c1cnc2c(c1)ccc1cccnc12.c1cnc2c(c1)ccc1cccnc12 [IId, Bis(1,10-phenanthroline)cuprous nitrate] | 25 mg/L | 12.5 mg/L | –
COc1ccc2ccc3cccnc3c2n1 [G] | – | – | MIC [2]: > 100 mg/L; MIC M. gall. with Cu (Table IVb): 3 mg/L
